Source: US20220274968A1, “Oxazole And Oxadiazole Derivatives Useful As Agonists Of Free Fatty Acid Receptor 1” (GBiotech S.à.r.l., priority 2019, published 2022)

System: C57BI/6N male mice
Assay: Oral glucose tolerance test (OGTT) in C57BI/6N male mice
Format: in vivo
Conditions: single peroral dose 60 min before glucose 2 g/kg; Z1558775684 20 mg/kg, Metformin 300 mg/kg; compared with the Vehicle-treated group; 5 mice per group
Protocol: Values are expressed as means of 5 animals tested. For glucose tolerance test (GTT), mice were orally treated with glucose at dose of 2 g/kg at the dose volume of 10 ml/kg after a 6-hour fasting. Glucose measurements were performed immediately before compound treatment (−60 min), at −30 min, 0 min (before glucose administration), and then 15, 30, 60, 90 and 120 min after glucose administration.
EXAMPLE 87: OGTT TESTING IN C57BI/6N MALE MICE
Each experimental group consisted of five male C57BI/6N mice. Animals were dosed once perorally with 20 mg/kg of tested compound Z1558775684. A control group was dosed with vehicle on the same schedule. Metformin at the dosage of 300 mg/kg was used as reference compound.
Compound Z1558775684 was dissolved/suspended in DMSO-PEG400-physiological saline (20%:50%:30%) at concentration 4 mg/ml. Metformin was dissolved in the same vehicle at concentration 60 mg/ml. The test samples were administered per os in the volume corresponding to 5 ml/kg body weight.
Single doses of test samples were administered 60 min before glucose treatment at 3 p.m.
The blood glucose level was measured after 6-hour fasting using Call Plus glucometer and specific test strips. Blood was obtained from the tail vein by incision of the tail tip, 5-6 μl of blood was used for each assay. […]

| SMILES | glucose level during oral glucose tolerance test (OGTT) |
| --- | --- |
| CCc1nc(N)nc(SCc2ncc(-c3cccc(Cl)c3)o2)n1 [Compound Z1558775684, 4-({[5-(3-chlorophenyl)-1,3-oxazol-2-yl]methyl}sulfanyl)-6-ethyl-1,3,5-triazin-2-amine] | Statistically significant decrease in glucose level |
| CN(C)C(=N)N=C(N)N [Metformin] | Statistically significant decrease in glucose level |
